Source: ChEMBL document CHEMBL2073853, “Cholesterol interaction with the daunorubicin binding site of P-glycoprotein” (Biochem Biophys Res Commun, 2000)

Biological target: ATP-dependent translocase ABCB1 (Homo sapiens, UniProt P08183)
Assay: TP_TRANSPORTER: increase in Daunorubicn intracellular accumulation (Daunorubicin: ? uM) in NIH-G185 cells
Type: functional, cell-based

Sequence of ATP-dependent translocase ABCB1 (P08183 whole entry): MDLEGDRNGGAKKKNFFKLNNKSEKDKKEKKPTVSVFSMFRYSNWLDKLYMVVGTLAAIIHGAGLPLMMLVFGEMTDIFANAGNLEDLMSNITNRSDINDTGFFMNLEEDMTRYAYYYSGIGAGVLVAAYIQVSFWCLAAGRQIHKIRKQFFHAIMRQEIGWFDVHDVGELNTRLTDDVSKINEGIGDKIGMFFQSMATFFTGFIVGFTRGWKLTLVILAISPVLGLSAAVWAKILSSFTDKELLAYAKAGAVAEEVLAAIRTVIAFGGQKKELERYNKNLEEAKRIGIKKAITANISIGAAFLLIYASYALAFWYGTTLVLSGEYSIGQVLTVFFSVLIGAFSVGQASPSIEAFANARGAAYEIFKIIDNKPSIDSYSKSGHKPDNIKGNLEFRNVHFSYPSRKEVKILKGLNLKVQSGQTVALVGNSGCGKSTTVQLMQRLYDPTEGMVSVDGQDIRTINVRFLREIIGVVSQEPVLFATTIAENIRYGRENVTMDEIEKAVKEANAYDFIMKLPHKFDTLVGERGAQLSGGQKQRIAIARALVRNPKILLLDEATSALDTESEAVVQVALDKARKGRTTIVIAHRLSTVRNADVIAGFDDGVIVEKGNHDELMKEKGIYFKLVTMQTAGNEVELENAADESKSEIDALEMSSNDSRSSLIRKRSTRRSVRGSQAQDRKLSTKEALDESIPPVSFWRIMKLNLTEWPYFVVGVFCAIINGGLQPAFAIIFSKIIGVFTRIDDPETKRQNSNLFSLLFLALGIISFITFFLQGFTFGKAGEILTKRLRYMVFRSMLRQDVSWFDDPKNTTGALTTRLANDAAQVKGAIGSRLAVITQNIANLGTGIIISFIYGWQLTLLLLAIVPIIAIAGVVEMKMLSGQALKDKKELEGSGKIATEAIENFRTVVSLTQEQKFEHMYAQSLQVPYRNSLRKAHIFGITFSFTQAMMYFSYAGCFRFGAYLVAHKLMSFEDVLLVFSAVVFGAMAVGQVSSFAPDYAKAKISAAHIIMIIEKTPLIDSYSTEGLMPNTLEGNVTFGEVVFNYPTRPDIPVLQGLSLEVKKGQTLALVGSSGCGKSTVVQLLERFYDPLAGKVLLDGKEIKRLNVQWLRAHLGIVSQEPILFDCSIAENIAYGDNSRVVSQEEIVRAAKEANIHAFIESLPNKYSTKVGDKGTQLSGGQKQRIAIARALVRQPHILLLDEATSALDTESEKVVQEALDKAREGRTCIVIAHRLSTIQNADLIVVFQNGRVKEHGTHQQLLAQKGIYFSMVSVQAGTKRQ

IC50: 8.2 µM
SMILES: CC(C)CCC[C@@H](C)[C@H]1CC[C@H]2[C@@H]3CC=C4C[C@@H](O)CC[C@]4(C)[C@H]3CC[C@]12C [CHOLESTEROL]
